Measured values as given in patent US20240316051A1, “A PHARMACEUTICAL COMBINATION AND USE THEREOF” (Ascentage Pharma (Suzhou) Co., Ltd., priority 2021, published 2024).

System: BAP1 mut mesothelioma PDX model
Test: Subcutaneous BAP1 mut mesothelioma PDX model (Example 21)
Assay type: in vivo, mice
Settings: Compound 73 100 mg/kg orally once per day, Compound C 50 mg/kg orally every other day, 36 days; alone or combined
Experimental: A subcutaneous xenograft tumor model of human tumor immunodeficient mice was established by cell inoculation: tumor cells in logarithmic growth phase were collected, counted, resuspended in 1×PBS, and the cell suspension concentration was adjusted to 2.5-5×10^7/mL. The tumor cells were inoculated subcutaneously in the right side of immunodeficient mice with a 1 ml syringe ([…]), 5-10×10^6/0.2 mL/mouse. All animal experiments were strictly in accordance with the specifications for the use and management of experimental animals in GenePharma Co., Ltd. and Suzhou Ascentage Pharma Co., Ltd. The calculation of relevant parameters refers to the Chinese NMPA “Guidelines for Non-Clinical Research Techniques of Cytotoxic Anti-tumor Drugs”.
Animal body weight and tumor size were measured twice weekly during the experiment. The state of the animal and the presence or absence of death were observed every day. The growth of tumor and the effects of treatment on normal behavior of animals were monitored routinely, specifically involving experimental animal activity, feeding and drinking, weight gain or loss, eyes, clothing hair and other abnormalities. The deaths and clinical symptoms observed during the experiment were recorded in the raw data. All operations for administration and measurement of mouse body weight and tumor volume were performed in a clean bench. According to the requirements of the experimental protocol, after the end of the last administration, plasma and tumor tissues were collected, weighed and photographed. The plasma and tumor samples were frozen at −80° C. for ready-to-use.
Tumor volume (TV) is calculated as: TV=a×b^2/2, wherein a and b represent the length and width of the tumor to be measured, respectively.
The relative tumor volume (RTV) is calculated as: RTV=Vt/V1, wherein V1 is the tumor volume at the start of grouping and administration, and Vt is the tumor volume measured on the t day after administration.
The evaluation index of anti-tumor activity is the relative tumor proliferation rate T/C (%), and the calculation formula thereof is: relative tumor proliferation rate T/C (%)=(TRTV/CRTV)×100%, TRTV is the RTV of treatment group, CRTV is the RTV of solvent control group.
Change of body weight (%)=(measured body weight-body weight at the start of grouping)/body weight at the start of grouping×100%.
A dose of drug is considered to be severely toxic if the body weight of mouse is reduced by more than 20% or the number of drug-related deaths exceeds 20%.
In this experiment, subcutaneous BAP1 mut mesothelioma PDX model was established (Lide Biotech) to evaluate the anti-tumor effect of Compound 73 in combination with Compound C. […]

## CC(C)N1Cc2cc(C(F)(F)F)ncc2-c2cnc(NCc3c(F)ccc4c3CCO4)n3cnc(c23)C1=O [Compound 73, 12-(((5-fluoro-2,3-dihydrobenzofuran-4-yl)methyl)amino)-4-isopropyl-7-(trifluoromethyl)-4,5-dihydro-3H-2,4,8,11,12a-pentaazabenzo[4,5]cycloocta[1,2,3-cd]inden-3-one]
  RTV @ D 36: 5.43
  T/C (%) @ D 36: 37.22%
